Test results as given in the supplement of paper PMC4862054.

Columns and labels:
Conditions in all cases: incubation time: 72 h
[1] = system: CAL-85-1; test: drug sensitivity score (DSS), CellTox Green (DSS (AUC-based score)); higher = stronger drug effect (viability inhibition or cytotoxicity); extreme values may be limits of the assay
Method in brief: (§1)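 For 72 h, breast cancer cell lines seeded at 20 µl suspension per well in 384-well plates were incubated with compound at 5 concentrations in 10-fold steps spanning a 10,000-fold range that differed by compound. The first reading was CellTox Green fluorescence at 485/520 nm, and the second was CellTiter-Glo luminescence after 10 min at room temperature. Both were normalised per plate to 0.1 % DMSO and a positive kill control, and the drug sensitivity score was obtained from the area under the fitted dose-response curve.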

[2] = system: MDA-MB-231; test: as above
Method in brief: as §1

[3] = system: Hs578T; test: as above
Method in brief: as §1

[4] = system: BT-549; test: as above
Method in brief: as §1

[5] = system: MFM-223; test: as above
Method in brief: as §1

[6] = system: HCC1937; test: as above
Method in brief: as §1

[7] = system: MCF-10A; test: as above
Method in brief: as §1

[8] = system: DU-4475; test: as above
Method in brief: as §1

[9] = system: BT-474; test: as above
Method in brief: as §1

[10] = system: HCC1599; test: as above
Method in brief: as §1

[11] = system: CAL-120; test: as above
Method in brief: as §1

[12] = system: HDQ-P1; test: as above
Method in brief: as §1

[13] = system: MDA-MB-436; test: as above
Method in brief: as §1

[14] = system: CAL-148; test: as above
Method in brief: as §1

[15] = system: MDA-MB-453; test: as above
Method in brief: as §1

[16] = system: HCC1143; test: as above
Method in brief: as §1

[17] = system: CAL-51; test: as above
Method in brief: as §1

[18] = system: BT-549; test: drug sensitivity score (DSS), CellTiter-Glo (DSS (AUC-based score)); higher = stronger drug effect (viability inhibition or cytotoxicity); extreme values may be limits of the assay
Method in brief: as §1

[19] = system: HCC1937; test: as above
Method in brief: as §1

[20] = system: DU-4475; test: as above
Method in brief: as §1

[21] = system: BT-474; test: as above
Method in brief: as §1

[22] = system: MDA-MB-436; test: as above
Method in brief: as §1

[23] = system: MDA-MB-453; test: as above
Method in brief: as §1

Measured: drug sensitivity score

CC(=O)Nc1ccc(C(=O)Nc2ccccc2N)cc1 [Tacedinaline]
0: [1] | [2] | [3] | [4] | [5] | [6] | [7] | [8] | [9] | [10] | [11] | [12] | [13] | [14] | [15] | [16] | [17] | [18] | [19] | [20] | [21] | [22] | [23]
